Assay results from US20250298027A1, “METHOD OF EVALUATING SMALL MOLECULE DISTRIBUTION USING TELLUROPHENE ANALOGUES” (THE GOVERNING COUNCIL OF THE UNIVERSITY OF TORONTO, priority 2022, published 2025).

Experiments:
[1] = IMC analysis of tellurium in PANC-1 xenograft tumour sections
Description: For IMC™ analysis, the initial objective was to visualize tellurium signal distribution in tumour sections and subsequently measure relative tellurium content in individual cells. Tumour sections were dewaxed, rehydrated and washed. Slides then were stained with Ir-intercalator to visualize cell nuclei, and then imaged by IMC™. The ^125Te isotope was visualised. […] Without wishing to be bound by theory, it was hypothesized that the processing of the FFPE tissues contributes to loss of tellurium signal as the teniposide interaction with the cells is largely non-covalent, thus the multiple wash steps required for dewaxing (xylene and ethanol washes) might have removed bound 1. To reduce the number of tissue processing steps, snap frozen samples prepared from the same tumours were sectioned and analyzed by IMC™.
To determine the corresponding concentration of Te present in the sample a set of standards containing increasing concentrations of Te were analyzed by IMC™. Based on the total counts present in each standard Te spot a count/Te atom constant was calculated (FIG. 8E).
Generation of murine PANC-1 xenograft model: All 6-week-old female NOD SCID mice (Charles River (Wilmington, MA) were maintained under specific pathogen-free (SPF) conditions at the Princess Margaret Cancer Centre (PMCC) facility. All animal experiments in this study were performed in accordance with the Animal Research Committee guidelines of the University Health Network institution. The subcutaneous PANC-1 xenograft mice were generated as described previously in Telox studies. The vehicle was prepared as follows: 30 mg benzyl alcohol, 60 mg N,N-dimethylacetamide, 500 mg purified Cremophor EL (Kolliphor EL), and 2.1 mL dehydrated alcohol were combined in a vial. The solution was topped with distilled water for a final volume of 5 mL. The pH of the clear solution is adjusted to pH ˜5 with maleic acid. For injections, drug was diluted with vehicle for a final concentration of 10 mg/mL and administered at 20 mg/kg by I.P. The mice were maintained in three groups; group 1 mice were injected with teniposide, group 2 received 1, and group 3 with normal saline. After 2 hours, mice were scarified, and tumors were extracted. […]

pH2AX^Ser139 [2] = experiment: pH2AX Western blotting in PANC-1 cells; format: cell-based, Human; conditions: 1 μM, 24 and 48 hours
Description: Next, the ability of 1 to induce DSBs—the dominant type of DNA damage resulting from Top2 inhibition was investigated. In response to DSBs, a cascade of DNA repair mechanisms are triggered, including-phosphorylation of the histone variant H2AX at Ser139. Thus, the level of pH2AX^Ser139 serves as a reliable marker for Top2-linked DSBs. Western blotting was used to measure pH2AX^Ser139 in PANC-1 cells treated with 1 μM of either 1 or teniposide for 24 and 48 hours.
pH2AX Blotting: PANC-1 cells (0.5×10^6) cells were seeded in 60 mm plastic petri dishes (Corning Inc. NY) and incubated for 18 h. The spent medium is removed and replaced with fresh medium containing drug ([…]) and incubated for either 24 or 48h. Control cells were treated with DMSO only. The cells were then lysed with RIPA buffer (25 mM Tris·HCl PH 7.6, 150 mM NaCl, 1% NP-40, 1% sodium deoxycholate, 0.1% SDS) (ThermoFisher Scientific) containing Halt Protease Inhibitor Cocktail (Cat. No. 78410) and Halt Phosphatase Inhibitor Cocktail (Cat. No. 78420) as per manufacturer's protocol. […] Antibodies (Abcam, Cambridge, MA) targeting the following proteins were used H2AX (S139) (ab11174, polyclonal) and β-tubulin (ab6046, polyclonal).

HL-60 cells = experiment: WST-1 viability assay in HL-60 cells; format: cell-based; conditions: Homo sapiens, HL-60, 24 h, read-out: inhibition of proliferation of HL-60 cells
Description: The toxicity of 1 was compared to teniposide in HL-60 cells after incubation for 24 hours using a WST-1 viability assay.
WST-1 metabolic cytotoxicity assay: HL-60 cells (ATCC® CCL-240TM) were maintained in DMEM media with 2 mM L-glutamine (Gibco) supplemented with 20% calf serum and 100× dilution of penicillin-streptomycin solution (Gibco). Cells were maintained at 37° C. in a humidified atmosphere of 5% CO2 in air. HL-60 cells (100 pL) were seeded into a 96 well clear at a density of 5×10^5 cells/mL. Cells were treated with either DMSO or appropriate inhibitor from DMSO stocks. […] Cells were incubated for 24 h at 37° C. under a 5% CO2 atmosphere. WST-1 reagent (10 pL; Roche Diagnostics, 05015944001) was added to each well and gently mixed by pipetting. Cells were incubated for 1 h at 37° C. under 5% CO2 atmosphere. UV-vis absorbance measurements of each well at 450 nm was recorded using a TECAN Safire 2 plate reader. Data was background corrected against wells that contained cell growth media without cells and WST-1. Experiment was performed in triplicate.

PANC-1 cells = experiment: alamarBlue viability assay in PANC-1 cells; format: cell-based, Human; conditions: maximum dose of 25 μM, 72 hours exposure
Description: Similarly, PANC1 cells were characterized for later in vivo experiments. Using an alamarBlue viability assay and a proliferative assay, PANC-1 cells were incubated with 1 or teniposide.
AlamarBlue assay: PANC-1 cells were seeded into black, clear-bottom 96-well assay plates (Corning; CLS3603) and incubated for 24 hours. The medium was replaced with […] of teniposide or compound 1. After 72 hours exposure to drug, alamarBlue (Thermo Fisher Scientific; DAL1100) cell viability reagent was added and incubated for 4 hours at 37° C. Fluorescence intensity was measured using an excitation wavelength of 560 nm and an emission of 590 nm. Cell viability was calculated by normalizing to an untreated control.

pH2AX^Ser139 [3] = experiment: pH2AX immunohistochemistry of PANC-1 xenograft tumour sections; format: in vivo, mice; conditions: 20 mg/kg IP, 2 hours
Description: PANC-1 xenograft-bearing mice were injected with either teniposide or the Te-teniposide analogue 1 IP. A dose of 20 mg/kg was selected based on literature reports detailing teniposide drug delivery strategies. After 2 hours, mice were sacrificed and tissues of interest were harvested, formalin fixed, and paraffin embedded. Tissue sections (5 um) were cut and mounted onto microscopy slides. The expression of pH2AX^Ser139 levels were first assessed by immunohistochemistry. Serial sections derived from PANC-1 xenograft tumours were stained with primary antibody and subsequently HRP-conjugated secondary antibody for standard brown staining. DSBs are indicated by large, discrete pH2AX^Ser139 foci. Representative images of immunostained slides show increased pH2AX^Ser139 levels in treated mice relative to saline injected control with clear, punctate staining (FIG. 7).

Top2 = target: T1, Top2 (Homo sapiens, UniProt P11388); experiment: Top2 decatenation assay using kinetoplast DNA; format: biochemical
T1 construct: purchased TopoGEN, Inc
T1 sequence (P11388 whole entry): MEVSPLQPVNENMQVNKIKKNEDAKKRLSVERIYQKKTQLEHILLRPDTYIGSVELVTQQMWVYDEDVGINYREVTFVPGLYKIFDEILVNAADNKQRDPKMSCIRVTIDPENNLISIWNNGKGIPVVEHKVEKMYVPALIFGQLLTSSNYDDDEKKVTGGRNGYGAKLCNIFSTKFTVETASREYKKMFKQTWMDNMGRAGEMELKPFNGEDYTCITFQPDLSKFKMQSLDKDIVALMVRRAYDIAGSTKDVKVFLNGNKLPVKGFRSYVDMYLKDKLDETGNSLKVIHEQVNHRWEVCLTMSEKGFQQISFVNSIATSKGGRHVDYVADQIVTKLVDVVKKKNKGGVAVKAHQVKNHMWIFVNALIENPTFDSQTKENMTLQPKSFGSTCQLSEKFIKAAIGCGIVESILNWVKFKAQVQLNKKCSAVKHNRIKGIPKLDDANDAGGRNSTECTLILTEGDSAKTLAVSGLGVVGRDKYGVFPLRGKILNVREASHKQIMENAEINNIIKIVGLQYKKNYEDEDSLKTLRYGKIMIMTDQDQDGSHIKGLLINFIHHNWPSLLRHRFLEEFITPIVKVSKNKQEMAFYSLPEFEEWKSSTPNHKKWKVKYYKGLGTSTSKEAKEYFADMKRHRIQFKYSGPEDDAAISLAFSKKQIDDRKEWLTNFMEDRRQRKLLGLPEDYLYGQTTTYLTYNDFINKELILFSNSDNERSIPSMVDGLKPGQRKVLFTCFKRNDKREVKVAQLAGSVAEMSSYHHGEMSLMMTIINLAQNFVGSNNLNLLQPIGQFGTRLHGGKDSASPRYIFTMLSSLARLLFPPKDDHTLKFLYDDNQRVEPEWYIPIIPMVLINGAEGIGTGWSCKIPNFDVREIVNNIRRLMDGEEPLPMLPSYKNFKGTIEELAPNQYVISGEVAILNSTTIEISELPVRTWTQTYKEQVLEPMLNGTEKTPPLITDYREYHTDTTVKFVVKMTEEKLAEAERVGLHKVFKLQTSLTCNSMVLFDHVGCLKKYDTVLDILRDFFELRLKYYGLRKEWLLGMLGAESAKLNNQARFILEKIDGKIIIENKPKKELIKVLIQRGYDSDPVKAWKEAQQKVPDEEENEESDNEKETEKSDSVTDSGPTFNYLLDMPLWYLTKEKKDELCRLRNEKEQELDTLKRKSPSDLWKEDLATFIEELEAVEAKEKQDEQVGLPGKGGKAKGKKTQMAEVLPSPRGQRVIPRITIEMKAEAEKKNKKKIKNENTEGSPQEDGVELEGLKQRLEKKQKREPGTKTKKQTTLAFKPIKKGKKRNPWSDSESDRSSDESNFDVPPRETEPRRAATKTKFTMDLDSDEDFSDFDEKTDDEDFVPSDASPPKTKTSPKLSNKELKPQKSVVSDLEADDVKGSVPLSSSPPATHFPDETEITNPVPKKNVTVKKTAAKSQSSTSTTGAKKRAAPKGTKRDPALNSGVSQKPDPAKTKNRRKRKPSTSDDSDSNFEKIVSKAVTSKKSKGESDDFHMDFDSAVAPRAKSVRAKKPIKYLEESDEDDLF
Description: The relative Top2 inhibitory activity of 1 in comparison to teniposide was evaluated in decatenation assays using kinetoplast DNA (kDNA). Decatenation of the DNA, catalyzed by Top2, can be readily resolved using agarose gel electrophoresis.
Top2 decatenation assay: The assay was performed according to manufacturer's protocol (TopoGEN, Inc.). The total reaction volume was 20 μL of assay buffer (120 mM KCl, 50 mM Tris-HCl, 10 mM MgCl2, 0.5 mM DTT, 0.5 mM ATP, and 30 μg/mL BSA) and 120 ng of kinetoplast DNA (kDNA) substrate. One unit of TopoII enzyme in was added to reaction microfuge tubes in the presence or absence of inhibitor. The reaction was incubated for 30 min at 37° C. The reaction was stopped by addition of 5 μL of stop buffer (5% sarkosyl, 0.025% bromophenolblue, and 50% glycerol). The samples were then analyzed using electrophoresis using a 1% agarose gel in Tris-borate-EDTA buffer with 0.5 pg/mL ethidium bromide stain. Gels were imaged using Syngene G: Box Gel Imager (Chemi-XT4 GENESys software with preset for ethidium bromide stained agarose gels). Band intensities were analyzed using ImageJ software.

**Q.** Which “^125Te signal in snap frozen tumour sections by IMC” value ([1]; 20 mg/kg IP, 2 h before sacrifice, frozen sections) does the source give for `COc1cc([C@@H]2c3cc4c(cc3[C@@H](OC3OC5COC(c6ccc[te]6)OC5C(O)C3O)[C@H]3COC(=O)C23)OCO4)cc(OC)c1O` (stereo partly shown) [Compound 1, Tellurium-labelled teniposide] here?
**A.** signals were observed

**Q.** And the “Te signal in FFPE tumour sections by IMC” value ([1]; 20 mg/kg IP, 2 hours, FFPE sections, ^125Te)?
**A.** no Te signal above background

**Q.** What about the “Te signal in samples collected at later timepoints after dosing” value ([1]; frozen sections, later timepoints) of the same compound?
**A.** not observed

**Q.** And the “average concentration in the tissue” value ([1]; frozen tumour sections, at the time of analysis, no precise value)?
**A.** low tens

**Q.** What about the “levels of pH2AX^Ser139 relative to DMSO-treated control” value (pH2AX^Ser139 [2]) of the same compound?
**A.** Increased levels

**Q.** What about the inhibition at 50 µM (HL-60 cells) of the same compound?
**A.** ≤ 60%

**Q.** And the “loss of cell viability in PANC-1 cells” value (PANC-1 cells)?
**A.** almost complete loss of cell viability

**Q.** What about the “pH2AX^Ser139 levels in tumour sections relative to saline injected control” value (pH2AX^Ser139 [3]) of the same compound?
**A.** increased

**Q.** And the IC50 (Top2)?
**A.** 5.6 µM

**Q.** And the “inhibition of the decatenation reaction” value (Top2; 5, 10, 25 and 50 μM)?
**A.** dose-dependent inhibition
